# Reference: US20140107219A1, “LOCAL ANAESTHETIC” (VITA (EUROPE) LIMITED, priority 2011, published 2014)
# Values joined by “and” are separate entries in the source; they are usually repeats but may differ in a detail not shown here. Identical values can stand only once. Like-named read-outs stand apart in the source and are kept apart here.
# Assays:
# gastrocnemius muscle = assay: In vivo muscle CAP (mCAP, EMG integral) after intramuscular injection, gastrocnemius muscle; parameters: species or system rat
# [1] = in vivo; cited from earlier work
# [2] = tested on: isolated sciatic nerve of the rat; assay: Evoked compound action potential (CAP) of the isolated rat sciatic nerve in a three-chamber bath (ex vivo): inhibition and recovery after washout; settings: for IT0: 15 mM (1.7 mg/mL)
# [3] = target: T1, hNav1.2 sodium channels (SCN2A gene, expressed in CHO cells) (Homo sapiens, UniProt Q99250); assay: Automated patch clamp (PatchXpress 7000A), cloned hNav1.2 in CHO cells, tonic and phasic; format: cell-based; settings: for inhibition at 730 µg/mL / inhibition at 1460 µg/mL / inhibition at 2190 µg/mL / inhibition at 2920 µg/mL: CHO
# T1 construct: expressed in transfected cells; host or cells: CHO cells
# Excerpt: (§1) 1. Cloned hNav1.2 sodium channels (SCN2A gene, expressed in CHO cells). 2. Cloned hNav1.6 sodium channels (SCN8A gene, expressed in CHO cells).
# Acute LD50 = format: in vivo; settings: from acute LD50
# [4] = tested on: peripheral nervous system of the rat; settings: in-vivo; cited from earlier work
# biceps muscle = assay: In vivo muscle CAP (mCAP, EMG integral) after intramuscular injection, biceps muscle; settings: 7.2 mg/kg intramuscular
# [5] = target: T2, hNav1.6 sodium channels (SCN8A gene, expressed in CHO cells) (Homo sapiens, UniProt Q9UQD0); assay: Automated patch clamp (PatchXpress 7000A), cloned hNav1.6 in CHO cells, tonic and phasic; format: cell-based; settings: for inhibition at 730 µg/mL / inhibition at 1460 µg/mL / inhibition at 2190 µg/mL / inhibition at 2920 µg/mL: CHO
# T2 construct: expressed in transfected cells; host or cells: CHO cells
# Experimental: In this example, the in vitro effects of 2-heptanone on the following ion channels were evaluated at room temperature using the PatchXpress 7000A (Molecular Devices), an automatic parallel patch clamp system:
# as §1
# The effects of 2-heptanone were evaluated at 0.73, 1.46, 2.19, and 2.92 mg/ml with each concentration tested in two cells (n=2). The duration of exposure to each concentration of 2-heptanone was 5 minutes. Tables 2 to 5 show the individual results from each concentration followed by individual concentration-response curves. The positive controls (Table 6) confirm the sensitivity of the test systems to inhibition.
# . Br. J. Pharmacol. 164, 719-730). […]
# T2 sequence (Q9UQD0 whole entry): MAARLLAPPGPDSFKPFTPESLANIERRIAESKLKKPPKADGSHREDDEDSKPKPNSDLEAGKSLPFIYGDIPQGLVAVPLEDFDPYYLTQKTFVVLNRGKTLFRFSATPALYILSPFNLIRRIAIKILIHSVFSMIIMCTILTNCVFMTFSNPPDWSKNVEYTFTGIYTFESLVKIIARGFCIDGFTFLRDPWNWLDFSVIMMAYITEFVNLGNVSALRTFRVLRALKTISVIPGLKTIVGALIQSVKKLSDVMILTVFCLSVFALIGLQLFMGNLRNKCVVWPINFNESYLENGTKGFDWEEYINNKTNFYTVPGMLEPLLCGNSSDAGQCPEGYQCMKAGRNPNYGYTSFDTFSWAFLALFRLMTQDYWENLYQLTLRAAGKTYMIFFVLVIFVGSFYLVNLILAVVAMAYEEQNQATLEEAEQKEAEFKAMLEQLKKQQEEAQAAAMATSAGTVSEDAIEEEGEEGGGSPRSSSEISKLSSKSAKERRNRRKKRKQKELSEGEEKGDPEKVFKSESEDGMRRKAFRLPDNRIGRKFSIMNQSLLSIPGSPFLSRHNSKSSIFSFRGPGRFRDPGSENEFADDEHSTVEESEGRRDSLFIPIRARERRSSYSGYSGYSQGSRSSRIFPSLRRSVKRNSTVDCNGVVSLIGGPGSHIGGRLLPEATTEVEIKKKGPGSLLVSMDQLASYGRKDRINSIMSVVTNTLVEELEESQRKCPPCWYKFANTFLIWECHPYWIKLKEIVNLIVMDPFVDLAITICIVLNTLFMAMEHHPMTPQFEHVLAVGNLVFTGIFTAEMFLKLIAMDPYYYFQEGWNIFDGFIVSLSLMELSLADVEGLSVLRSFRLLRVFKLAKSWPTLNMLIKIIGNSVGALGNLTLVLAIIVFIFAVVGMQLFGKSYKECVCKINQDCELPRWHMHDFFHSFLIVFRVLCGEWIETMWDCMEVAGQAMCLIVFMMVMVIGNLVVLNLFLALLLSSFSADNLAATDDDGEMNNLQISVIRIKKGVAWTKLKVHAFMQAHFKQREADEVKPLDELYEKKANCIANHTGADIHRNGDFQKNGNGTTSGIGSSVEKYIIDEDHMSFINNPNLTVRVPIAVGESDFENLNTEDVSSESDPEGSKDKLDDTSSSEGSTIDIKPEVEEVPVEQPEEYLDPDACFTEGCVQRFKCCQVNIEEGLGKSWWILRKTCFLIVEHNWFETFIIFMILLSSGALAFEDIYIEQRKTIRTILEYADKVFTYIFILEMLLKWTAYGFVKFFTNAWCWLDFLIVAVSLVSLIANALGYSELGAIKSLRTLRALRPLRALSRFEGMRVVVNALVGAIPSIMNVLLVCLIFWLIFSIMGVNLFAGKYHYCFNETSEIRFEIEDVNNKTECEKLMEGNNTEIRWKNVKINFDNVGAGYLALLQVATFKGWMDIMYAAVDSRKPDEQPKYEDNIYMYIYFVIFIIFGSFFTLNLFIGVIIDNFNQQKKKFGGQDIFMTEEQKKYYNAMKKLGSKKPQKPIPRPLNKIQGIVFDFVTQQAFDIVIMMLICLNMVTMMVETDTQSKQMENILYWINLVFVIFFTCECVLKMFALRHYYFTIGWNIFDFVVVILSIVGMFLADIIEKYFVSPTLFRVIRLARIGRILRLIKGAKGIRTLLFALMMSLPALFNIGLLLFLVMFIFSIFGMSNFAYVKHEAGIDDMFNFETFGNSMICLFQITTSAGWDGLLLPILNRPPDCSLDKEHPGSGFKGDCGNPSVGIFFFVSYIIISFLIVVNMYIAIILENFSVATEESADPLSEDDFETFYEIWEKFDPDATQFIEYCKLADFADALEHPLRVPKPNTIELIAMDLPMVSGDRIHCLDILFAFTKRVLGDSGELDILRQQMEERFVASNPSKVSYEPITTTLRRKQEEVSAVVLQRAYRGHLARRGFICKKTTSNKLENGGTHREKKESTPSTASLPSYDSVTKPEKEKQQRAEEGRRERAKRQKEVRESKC
# T1 sequence (Q99250 whole entry): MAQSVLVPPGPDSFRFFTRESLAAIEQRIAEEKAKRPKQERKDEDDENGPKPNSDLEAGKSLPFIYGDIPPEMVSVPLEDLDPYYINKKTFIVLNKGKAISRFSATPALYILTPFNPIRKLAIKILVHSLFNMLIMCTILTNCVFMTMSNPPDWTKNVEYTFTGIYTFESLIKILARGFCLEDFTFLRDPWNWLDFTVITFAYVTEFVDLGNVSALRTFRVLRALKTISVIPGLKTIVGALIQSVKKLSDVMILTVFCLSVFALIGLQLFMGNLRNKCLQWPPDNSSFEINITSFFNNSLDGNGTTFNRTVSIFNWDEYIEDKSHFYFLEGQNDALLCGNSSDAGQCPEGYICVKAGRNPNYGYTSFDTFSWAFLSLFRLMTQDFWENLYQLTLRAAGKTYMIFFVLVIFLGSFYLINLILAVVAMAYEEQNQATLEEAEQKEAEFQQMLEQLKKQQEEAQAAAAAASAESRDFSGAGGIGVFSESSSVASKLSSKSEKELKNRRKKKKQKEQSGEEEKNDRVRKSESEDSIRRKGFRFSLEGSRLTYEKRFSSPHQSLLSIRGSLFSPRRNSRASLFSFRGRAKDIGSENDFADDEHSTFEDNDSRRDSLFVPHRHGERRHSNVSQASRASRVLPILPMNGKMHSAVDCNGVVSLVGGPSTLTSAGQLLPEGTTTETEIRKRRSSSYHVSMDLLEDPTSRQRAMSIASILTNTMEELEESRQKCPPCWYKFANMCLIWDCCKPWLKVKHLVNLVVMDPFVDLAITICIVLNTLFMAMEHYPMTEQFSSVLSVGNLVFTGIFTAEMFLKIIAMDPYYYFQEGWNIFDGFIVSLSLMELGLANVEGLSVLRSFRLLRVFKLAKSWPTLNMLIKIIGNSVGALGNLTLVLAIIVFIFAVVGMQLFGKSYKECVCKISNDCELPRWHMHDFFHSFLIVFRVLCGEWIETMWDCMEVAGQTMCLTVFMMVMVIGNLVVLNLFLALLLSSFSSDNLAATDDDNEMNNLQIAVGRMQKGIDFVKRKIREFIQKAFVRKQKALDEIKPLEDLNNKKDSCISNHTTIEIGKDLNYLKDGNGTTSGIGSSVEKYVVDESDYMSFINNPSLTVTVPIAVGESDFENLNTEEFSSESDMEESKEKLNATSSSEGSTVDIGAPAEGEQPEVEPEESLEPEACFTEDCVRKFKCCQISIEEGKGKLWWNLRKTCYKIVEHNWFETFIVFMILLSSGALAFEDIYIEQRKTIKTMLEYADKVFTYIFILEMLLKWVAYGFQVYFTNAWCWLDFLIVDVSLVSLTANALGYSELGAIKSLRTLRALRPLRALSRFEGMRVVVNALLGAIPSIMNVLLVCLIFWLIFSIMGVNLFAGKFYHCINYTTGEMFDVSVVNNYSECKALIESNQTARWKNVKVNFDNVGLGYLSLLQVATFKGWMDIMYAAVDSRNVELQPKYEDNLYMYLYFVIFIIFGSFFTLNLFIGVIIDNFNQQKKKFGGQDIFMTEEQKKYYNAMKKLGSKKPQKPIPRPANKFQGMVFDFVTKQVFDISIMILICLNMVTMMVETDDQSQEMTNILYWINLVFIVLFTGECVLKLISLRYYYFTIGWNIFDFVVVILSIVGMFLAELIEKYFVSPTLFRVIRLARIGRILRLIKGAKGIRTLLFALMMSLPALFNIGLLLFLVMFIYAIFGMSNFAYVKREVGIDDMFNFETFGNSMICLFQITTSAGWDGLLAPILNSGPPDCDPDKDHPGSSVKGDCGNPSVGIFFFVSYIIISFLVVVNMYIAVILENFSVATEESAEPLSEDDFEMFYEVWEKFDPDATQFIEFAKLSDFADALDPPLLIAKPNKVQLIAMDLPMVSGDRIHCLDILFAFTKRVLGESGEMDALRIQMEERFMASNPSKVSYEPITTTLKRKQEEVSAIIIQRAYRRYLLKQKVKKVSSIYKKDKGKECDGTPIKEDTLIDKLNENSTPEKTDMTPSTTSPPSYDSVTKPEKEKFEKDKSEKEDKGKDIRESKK
smiles,measurement,setting,value
CCCCCC(C)=O [2-heptanone],recovery of mCAP after 3 h,gastrocnemius muscle; 7.2 mg/kg intramuscular,65.4±7.78% and 61%
same,IT50 of the integral of mCAPs,"gastrocnemius muscle; 7.2 mg/kg intramuscular, in Tween 80 + 0.9% NaCl",25.78 s
same,IT50 of the integral of mCAPs,gastrocnemius muscle; 10.8 mg/kg intramuscular,11.16 s
same,"recovery of mCAP, % of initial values after 3 h",gastrocnemius muscle; 10.8 mg/kg intramuscular,no recovery
same,times more effective than lidocaine,gastrocnemius muscle; similar IT50 at 7.2 mg/kg vs 10.8 mg/kg lidocaine,1.5 times
same,acute LD50,[1],1760 mg/kg
same,IT100 / IT0,[2]; 1.41 mg/mL,517.5 ± 25.62 s
same,IT100 / IT0,"[2]; 1.41 mg/mL, listed as 2-Heptanone",517.5 ± 25.62 s
same,IT100 / IT0,[2]; 2.28 mg/mL (20 mM),358.8 ± 18.07 s
same,IT100 / IT0,"[2]; 2.28 mg/mL (20 mM), listed as 2-Heptanone",358.8 ± 18.07 s
same,IT50 (time to inhibit CAP amplitude to 50% of control),[2]; 10 mg/mL,22.3 ± 1.1 s
same,CAP decreased to (% of control),"[2]; 10 mg/mL, within 70 seconds of treatment",24%
same,IT50 (time to inhibit CAP amplitude to 50% of control),"[2]; 10 mg/mL, listed as 2-Heptanone",22.3 ± 1.1 s
same,IT0,"[2]; stagnant saline, n=5",5 to 9 min
same,IT0,"[2]; stirred saline, individual nerves",5 min and 10 min
same,"recovery of the CAP after washout, % of control",[2]; after 1.41 mg/mL,above 87.5%
same,IC50 (concentration required to inhibit the CAP to 50% of control),"[2]; estimated from time-response curves, GraphPad Prism 5",469 ± 2 µg/mL
same,neurotoxic effect on nerve fibres,"[2]; ex vivo, within the limits of 24 h",no neurotoxic effect
same,fold slower than lidocaine,[2]; whole nerve preparation,1.54 fold
same,"times less active than lidocaine, hNav1.2 phasic",[3],12.8 times
same,"times less active than lidocaine, hNav1.2 tonic",[3],7 times
same,"Individual Data Points (% Inhibition), Nav1.2 phasic","[3]; 0.73 mg/ml, single cells",44.6%
same,"Individual Data Points (% Inhibition), Nav1.2 tonic","[3]; 0.73 mg/ml, single cells",27. %
same,"Individual Data Points (% Inhibition), Nav1.2 phasic","[3]; 1.46 mg/ml, single cells",64.7%
same,"Individual Data Points (% Inhibition), Nav1.2 tonic","[3]; 1.46 mg/ml, single cells",45.8%
same,"Individual Data Points (% Inhibition), Nav1.2 phasic","[3]; 2.19 mg/ml, single cells",92.4%
same,"Individual Data Points (% Inhibition), Nav1.2 tonic","[3]; 2.19 mg/ml, single cells",73. %
same,"Individual Data Points (% Inhibition), Nav1.2 phasic","[3]; 2.92 mg/ml, single cells",99.8%
same,"Individual Data Points (% Inhibition), Nav1.2 tonic","[3]; 2.92 mg/ml, single cells",89. %
same,inhibition at 730 µg/mL,"[3]; 0.73 mg/ml, single cells, read-out: Individual Data Points (% Inhibition), Nav1.2 phasic",44.3%
same,inhibition at 730 µg/mL,"[3]; 0.73 mg/ml, single cells, read-out: Individual Data Points (% Inhibition), Nav1.2 tonic",31.5%
same,inhibition at 730 µg/mL,"[3]; 0.73 mg/ml, read-out: Mean % Nav1.2 Phasic Inhibition",44.4%
same,inhibition at 730 µg/mL,"[3]; 0.73 mg/ml, read-out: Mean % Nav1.2 Tonic Inhibition",29.7%
same,inhibition at 1460 µg/mL,"[3]; 1.46 mg/ml, single cells, read-out: Individual Data Points (% Inhibition), Nav1.2 phasic",67.9%
same,inhibition at 1460 µg/mL,"[3]; 1.46 mg/ml, single cells, read-out: Individual Data Points (% Inhibition), Nav1.2 tonic",49.3%
same,inhibition at 1460 µg/mL,"[3]; 1.46 mg/ml, read-out: Mean % Nav1.2 Phasic Inhibition",66.3%
same,inhibition at 1460 µg/mL,"[3]; 1.46 mg/ml, read-out: Mean % Nav1.2 Tonic Inhibition",47.6%
same,inhibition at 2190 µg/mL,"[3]; 2.19 mg/ml, single cells, read-out: Individual Data Points (% Inhibition), Nav1.2 phasic",87.6%
same,inhibition at 2190 µg/mL,"[3]; 2.19 mg/ml, single cells, read-out: Individual Data Points (% Inhibition), Nav1.2 tonic",56.7%
same,inhibition at 2190 µg/mL,"[3]; 2.19 mg/ml, read-out: Mean % Nav1.2 Phasic Inhibition",90%
same,inhibition at 2190 µg/mL,"[3]; 2.19 mg/ml, read-out: Mean % Nav1.2 Tonic Inhibition",65.1%
same,inhibition at 2920 µg/mL,"[3]; 2.92 mg/ml, single cells, read-out: Individual Data Points (% Inhibition), Nav1.2 phasic",98.2%
same,inhibition at 2920 µg/mL,"[3]; 2.92 mg/ml, single cells, read-out: Individual Data Points (% Inhibition), Nav1.2 tonic",78.7%
same,inhibition at 2920 µg/mL,"[3]; 2.92 mg/ml, read-out: Mean % Nav1.2 Phasic Inhibition",99%
same,inhibition at 2920 µg/mL,"[3]; 2.92 mg/ml, read-out: Mean % Nav1.2 Tonic Inhibition",83.9%
same,IC50,"[3]; Example 7, n=2, read-out: Nav1.2 phasic IC50 (converted)",7.57 mM and 7.58 mM
same,IC50,"[3]; Example 7, n=2, read-out: Nav1.2 tonic IC50 (converted)",12.1 mM
same,IC50,"[3]; Example 18, mean ± SEM, read-out: hNav1.2 IC50, phasic (converted)",11.2 mM
same,IC50,"[3]; Example 18, mean ± SEM, read-out: hNav1.2 IC50, tonic (converted)",16.6 mM
same,"Hill coefficient, Nav1.2 phasic","[3]; FIG. 41, mean±SE",1.24±0.17
same,"Hill coefficient, Nav1.2 tonic","[3]; FIG. 41, mean±SE",1.44±0.02
same,times less toxic than lidocaine,Acute LD50,5.6 times
same,neurotoxic effects on the peripheral nervous system,[4],no neurotoxic effects
same,IT50 of mCAPs,biceps muscle,9.13 ± 0.73 s and 9.13 s
same,"times less active than lidocaine, hNav1.6 phasic",[5],11.7 times
same,"times less active than lidocaine, hNav1.6 tonic",[5],4.6 times
same,"Individual Data Points (% Inhibition), Nav1.6 phasic","[5]; 0.73 mg/ml, single cells",81.1%
same,"Individual Data Points (% Inhibition), Nav1.6 tonic","[5]; 0.73 mg/ml, single cells",52.6%
same,"Individual Data Points (% Inhibition), Nav1.6 phasic","[5]; 1.46 mg/ml, single cells",99.9%
same,"Individual Data Points (% Inhibition), Nav1.6 tonic","[5]; 1.46 mg/ml, single cells",70.4%
same,"Individual Data Points (% Inhibition), Nav1.6 phasic","[5]; 2.19 mg/ml, single cells",101.0%
same,"Individual Data Points (% Inhibition), Nav1.6 tonic","[5]; 2.19 mg/ml, single cells",100.1%
same,"Individual Data Points (% Inhibition), Nav1.6 phasic","[5]; 2.92 mg/ml, single cells",100.7%
same,"Individual Data Points (% Inhibition), Nav1.6 tonic","[5]; 2.92 mg/ml, single cells",99.9%
same,inhibition at 730 µg/mL,"[5]; 0.73 mg/ml, single cells, read-out: Individual Data Points (% Inhibition), Nav1.6 phasic",94%
same,inhibition at 730 µg/mL,"[5]; 0.73 mg/ml, single cells, read-out: Individual Data Points (% Inhibition), Nav1.6 tonic",40.9%
same,inhibition at 730 µg/mL,"[5]; 0.73 mg/ml, read-out: Mean % Inhibition, Nav1.6 phasic",87.6%
same,inhibition at 730 µg/mL,"[5]; 0.73 mg/ml, read-out: Mean % Nav1.6 Tonic Inhibition",46.8%
same,inhibition at 1460 µg/mL,"[5]; 1.46 mg/ml, single cells, read-out: Individual Data Points (% Inhibition), Nav1.6 phasic",102%
same,inhibition at 1460 µg/mL,"[5]; 1.46 mg/ml, single cells, read-out: Individual Data Points (% Inhibition), Nav1.6 tonic",70.8%
same,inhibition at 1460 µg/mL,"[5]; 1.46 mg/ml, read-out: Mean % Inhibition, Nav1.6 phasic",101%
same,inhibition at 1460 µg/mL,"[5]; 1.46 mg/ml, read-out: Mean % Nav1.6 Tonic Inhibition",70.6%
same,inhibition at 2190 µg/mL,"[5]; 2.19 mg/ml, single cells, read-out: Individual Data Points (% Inhibition), Nav1.6 phasic",102%
same,inhibition at 2190 µg/mL,"[5]; 2.19 mg/ml, single cells, read-out: Individual Data Points (% Inhibition), Nav1.6 tonic",96.5%
same,inhibition at 2190 µg/mL,"[5]; 2.19 mg/ml, read-out: Mean % Inhibition, Nav1.6 phasic",101%
same,inhibition at 2190 µg/mL,"[5]; 2.19 mg/ml, read-out: Mean % Nav1.6 Tonic Inhibition",98.3%
same,inhibition at 2920 µg/mL,"[5]; 2.92 mg/ml, single cells, read-out: Individual Data Points (% Inhibition), Nav1.6 phasic",101%
same,inhibition at 2920 µg/mL,"[5]; 2.92 mg/ml, single cells, read-out: Individual Data Points (% Inhibition), Nav1.6 tonic",96.1%
same,inhibition at 2920 µg/mL,"[5]; 2.92 mg/ml, read-out: Mean % Inhibition, Nav1.6 phasic",101%
same,inhibition at 2920 µg/mL,"[5]; 2.92 mg/ml, read-out: Mean % Nav1.6 Tonic Inhibition",98%
same,IC50,"[5]; Example 7, n=2, read-out: Nav1.6 phasic IC50",< 6.39 mM
same,IC50,"[5]; Example 7, n=2, read-out: Nav1.6 tonic IC50 (converted)",7.06 mM and 7.07 mM
same,"hNav1.6 IC50, phasic","[5]; Example 18, mean ± SEM",820 ± 30 µg/mL
same,IC50,"[5]; Example 18, mean ± SEM, read-out: hNav1.6 IC50, tonic (converted)",11.7 mM
same,"Hill coefficient, Nav1.6 phasic","[5]; FIG. 41, mean±SE",1.10±0.06
same,"Hill coefficient, Nav1.6 tonic","[5]; FIG. 41, mean±SE",1.35±0.12
